In patent publication US8334382B2, “Substituted biaryl piperazinyl-pyridine analogues” (Neurogen Corporation, priority 2004, dated 2012):

What follows are compounds tested against T1, human capsaicin receptor (Homo sapiens, UniProt Q8NER1) (assay: Calcium mobilization assay, determination of antagonist activity). Conditions: capsaicin at EC50; cells expressing human capsaicin receptor; Example 6.
T1 construct: expressed in transfected cells; host or cells: HEK293, stably transfected with pBK-CMV construct
T1 sequence (Q8NER1 whole entry): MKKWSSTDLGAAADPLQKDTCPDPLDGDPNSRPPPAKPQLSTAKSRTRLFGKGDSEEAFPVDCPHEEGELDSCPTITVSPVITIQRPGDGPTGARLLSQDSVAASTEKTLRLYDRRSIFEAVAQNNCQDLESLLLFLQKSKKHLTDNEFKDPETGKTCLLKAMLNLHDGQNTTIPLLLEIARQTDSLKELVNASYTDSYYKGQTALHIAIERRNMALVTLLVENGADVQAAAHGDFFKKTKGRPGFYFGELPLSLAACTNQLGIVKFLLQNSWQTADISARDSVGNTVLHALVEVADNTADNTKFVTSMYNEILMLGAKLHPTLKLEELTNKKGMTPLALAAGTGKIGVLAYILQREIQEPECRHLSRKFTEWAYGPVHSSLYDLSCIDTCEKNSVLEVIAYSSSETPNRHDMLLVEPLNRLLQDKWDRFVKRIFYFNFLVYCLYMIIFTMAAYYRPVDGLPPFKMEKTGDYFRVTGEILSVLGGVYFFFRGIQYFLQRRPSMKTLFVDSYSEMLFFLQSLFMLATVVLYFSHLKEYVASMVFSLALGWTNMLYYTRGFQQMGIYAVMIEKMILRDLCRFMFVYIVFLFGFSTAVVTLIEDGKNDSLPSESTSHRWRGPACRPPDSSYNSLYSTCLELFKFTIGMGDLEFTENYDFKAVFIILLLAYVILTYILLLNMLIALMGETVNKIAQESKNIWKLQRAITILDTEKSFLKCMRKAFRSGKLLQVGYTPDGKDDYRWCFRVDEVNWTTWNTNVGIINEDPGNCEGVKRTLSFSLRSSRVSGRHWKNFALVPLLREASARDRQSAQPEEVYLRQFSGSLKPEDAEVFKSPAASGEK
Assay type: cell-based
Protocol: A cDNA encoding full length human capsaicin receptor (SEQ ID NO:1, 2 or 3 of U.S. Pat. No. 6,482,611) is subcloned in the plasmid pBK-CMV (Stratagene, La Jolla, Calif.) for recombinant expression in mammalian cells.
Human embryonic kidney (HEK293) cells are transfected with the pBK-CMV expression construct encoding the full length human capsaicin receptor using standard methods. The transfected cells are selected for two weeks in media containing G418 (400 μg/ml) to obtain a pool of stably transfected cells. Independent clones are isolated from this pool by limiting dilution to obtain clonal stable cell lines for use in subsequent experiments.
Cells transfected with expression plasmids (as described in Example 4) and thereby expressing human capsaicin receptor are seeded and grown to 70-90% confluency in FALCON black-walled, clear-bottomed 96-well plates (#3904, BECTON-DICKINSON, Franklin Lakes, N.J.). The culture medium is emptied from the 96 well plates and FLUO-3 AM calcium sensitive dye (Molecular Probes, Eugene, Oreg.) is added to each well (dye solution: 1 mg FLUO-3 AM, 440 μL DMSO and 440 μl 20% pluronic acid in DMSO, diluted 1:250 in Krebs-Ringer HEPES (KRH) buffer (25 mM HEPES, 5 mM KCl, 0.96 mM NaH2PO4, 1 mM MgSO4, 2 mM CaCl2, 5 mM glucose, 1 mM probenecid, pH 7.4), 50 μl diluted solution per well). Plates are covered with aluminum foil and incubated at 37° C. for 1-2 h in an environment containing 5% CO2. After the incubation, the dye is emptied from the plates, and the cells are washed once with KRH buffer, and resuspended in KRH buffer.
To measure the ability of a test compound to agonize or antagonize a calcium mobilization response in cells expressing capsaicin receptors to capsaicin or other vanilloid agonist, the EC50 of the agonist capsaicin is first determined. An additional 20 μl of KRH buffer and 1 μl DMSO is added to each well of cells, prepared as described above. 100 μl capsaicin in KRH buffer is automatically transferred by the FLIPR instrument to each well. Capsaicin-induced calcium mobilization is monitored using either FLUOROSKAN ASCENT (Labsystems; Franklin, Mass.) or FLIPR (fluorometric imaging plate reader system; Molecular Devices, Sunnyvale, Calif.) instruments. Data obtained between 30 and 60 seconds after agonist application are used to generate an 8-point concentration response curve, with final capsaicin concentrations of 1 nM to 3 μM. KALEIDAGRAPH software (Synergy Software, Reading, Pa.) is used to fit the data to the equation: y=a*(1/(1+(b/x)^c)) to determine the 50% excitatory concentration (EC50) for the response. In this equation, y is the maximum fluorescence signal, x is the concentration of the agonist or antagonist (in this case, capsaicin), a is the Emax, b corresponds to the EC50 value and c is the Hill coefficient. Determination of Agonist Activity
Test compounds are dissolved in DMSO, diluted in 20 μl KRH buffer so that the final concentration of test compounds in the assay well is between 1 μM and 5 μM, and added to cells prepared as described above. The 96 well plates containing prepared cells and test compounds are incubated in the dark, at room temperature for 0.5 to 6 h. It is important that the incubation not continue beyond 6 h. Just prior to determining the fluorescence response, 100 μl capsaicin in KRH buffer at twice the EC50 concentration determined as described above is automatically added by the FLIPR instrument to each well of the 96 well plate for a final sample volume of 200 μl and a final capsaicin concentration equal to the EC50. The final concentration of test compounds in the assay wells is between 1 μM and 5 μM. […] The concentration of antagonist required to provide a 50% decrease, relative to the response observed in the presence of capsaicin and without antagonist, is the IC50 for the antagonist, and is preferably below 1 micromolar, 100 nanomolar, 10 nanomolar or 1 nanomolar.

IC50, ≤ 1 µM:
CC1CCCN1c1nc(-c2ccc(F)cc2)cc(N2CCN(c3ncc(CC(=O)O)cc3Cl)CC2)n1 (stereo not drawn) [Example 39, (5-Chloro-6-{4-[6-(4-fluoro-phenyl)-2-(2-methyl-pyrrolidin-1-yl)-pyrimidin-4-yl]-piperazin-1-yl}-pyridin-3-yl)-acetic acid]
CC1CCCN1c1nc(-c2ccc(F)cc2)cc(N2CCN(c3ncc(C(N)=O)cc3Cl)CC2)n1 (stereo not drawn) [Example 40, 5-Chloro-6-{4-[6-(4-fluoro-phenyl)-2-(2-methyl-pyrrolidin-1-yl)-pyrimidin-4-yl]-piperazin-1-yl}-nicotinamide]
CCOC(=O)c1cnc(N2CCN(c3cc(-c4ccccc4)nc(N4CCCC4C)n3)[C@H](C)C2)c(Cl)c1 (stereo partly drawn) [Example 41, 5-Chloro-6-{3-(R)-methyl-4-[2-(2-methyl-pyrrolidin-1-yl)-6-phenyl-pyrimidin-4-yl]-piperazin-1-yl}-nicotinic acid ethyl ester]
CCOC(=O)c1cnc(N2CCN(c3cc(-c4cncc(Cl)c4)nc(N4CCCC4C)n3)[C@H](C)C2)c(Cl)c1 (stereo partly drawn) [Example 42, 5-Chloro-6-{4-[6-(5-chloro-pyridin-3-yl)-2-(2-methyl-pyrrolidin-1-yl)-pyrimidin-4-yl]-3-(R)-methyl-piperazin-1-yl}-nicotinic acid ethyl ester]
CCOC(=O)c1cnc(N2CCN(c3cc(-c4ccnc(C(C)C)c4)nc(N4CCCC4C)n3)[C@H](C)C2)c(Cl)c1 (stereo partly drawn) [Example 43, 5-Chloro-6-{4-[6-(2-isopropyl-pyridin-4-yl)-2-(2-methyl-pyrrolidin-1-yl)-pyrimidin-4-yl]-3-(R)-methyl-piperazin-1-yl}-nicotinic acid ethyl ester]
Cc1cc(C(N)=O)cnc1N1CCN(c2cc(-c3ccc(F)cc3)nc(N3CCCC3C)n2)[C@H](C)C1 (stereo partly drawn) [Example 44, 6-{4-[6-(4-Fluoro-phenyl)-2-(2-methyl-pyrrolidin-1-yl)-pyrimidin-4-yl]-3-(R)-methyl-piperazin-1-yl}-5-methyl-nicotinamide]
Cc1cc(C(N)=O)cnc1N1CCN(c2cc(-c3ccc(F)cc3)nc(N3CCCC3C)n2)CC1 (stereo not drawn) [Example 45, 6-{4-[6-(4-Fluoro-phenyl)-2-(2-methyl-pyrrolidin-1-yl)-pyrimidin-4-yl]-piperazin-1-yl}-5-methyl-nicotinamide]
CCOC(=O)c1cnc(N2CCN(c3cc(-c4cccc(C)c4)nc(N4CCCC4C)n3)[C@H](C)C2)c(Cl)c1 (stereo partly drawn) [Example 46, 5-Chloro-6-{3-(R)-methyl-4-[2-(2-methyl-pyrrolidin-1-yl)-6-m-tolyl-pyrimidin-4-yl]-piperazin-1-yl}-nicotinic acid ethyl ester]
CC1CCCN1c1nc(-c2ccccc2)cc(N2CCN(c3ncc(CO)cc3Cl)C[C@H]2C)n1 (stereo partly drawn) [Example 47, (5-Chloro-6-{3-(R)-methyl-4-[2-(2-methyl-pyrrolidin-1-yl)-6-phenyl-pyrimidin-4-yl]-piperazin-1-yl}-pyridin-3-yl)-methanol]
Cc1cccc(-c2cc(N3CCN(c4ncc(CO)cc4Cl)C[C@H]3C)nc(N3CCCC3C)n2)c1 (stereo partly drawn) [Example 48, (5-Chloro-6-{3-(R)-methyl-4-[2-(2-methyl-pyrrolidin-1-yl)-6-m-tolyl-pyrimidin-4-yl]-piperazin-1-yl}-pyridin-3-yl)-methanol]
CC1CCCN1c1nc(-c2cncc(Cl)c2)cc(N2CCN(c3ncc(CO)cc3Cl)C[C@H]2C)n1 (stereo partly drawn) [Example 49, (5-Chloro-6-{4-[6-(5-chloro-pyridin-3-yl)-2-(2-methyl-pyrrolidin-1-yl)-pyrimidin-4-yl]-3-(R)-methyl-piperazin-1-yl}-pyridin-3-yl)-methanol]
CC(C)c1cc(-c2cc(N3CCN(c4ncc(CO)cc4Cl)C[C@H]3C)nc(N3CCCC3C)n2)ccn1 (stereo partly drawn) [Example 50, (5-Chloro-6-{4-[6-(2-isopropyl-pyridin-4-yl)-2-(2-methyl-pyrrolidin-1-yl)-pyrimidin-4-yl]-3-(R)-methyl-piperazin-1-yl}-pyridin-3-yl)-methanol]
Cc1cccc(-c2cc(N3CCN(c4ncc(C(=O)O)cc4Cl)C[C@H]3C)nc(N3CCCC3C)n2)c1 (stereo partly drawn) [Example 51, 5-Chloro-6-{3-(R)-methyl-4-[2-(2-methyl-pyrrolidin-1-yl)-6-m-tolyl-pyrimidin-4-yl]-piperazin-1-yl}-nicotinic acid]
CC1CCCN1c1nc(-c2cncc(Cl)c2)cc(N2CCN(c3ncc(C(=O)O)cc3Cl)C[C@H]2C)n1 (stereo partly drawn) [Example 52, 5-Chloro-6-{4-[6-(5-chloro-pyridin-3-yl)-2-(2-methyl-pyrrolidin-1-yl)-pyrimidin-4-yl]-3-(R)-methyl-piperazin-1-yl}-nicotinic acid]
CC(C)c1cc(-c2cc(N3CCN(c4ncc(C(=O)O)cc4Cl)C[C@H]3C)nc(N3CCCC3C)n2)ccn1 (stereo partly drawn) [Example 53, 5-Chloro-6-{4-[6-(2-isopropyl-pyridin-4-yl)-2-(2-methyl-pyrrolidin-1-yl)-pyrimidin-4-yl]-3-(R)-methyl-piperazin-1-yl}-nicotinic acid]
CCOC(=O)c1cnc(N2CCN(c3cc(-c4ccccc4)nc(N4CCCC4C)n3)CC2)c(C)c1 (stereo not drawn) [Example 54, 5-Methyl-6-{4-[2-(2-methyl-pyrrolidin-1-yl)-6-phenyl-pyrimidin-4-yl]-piperazin-1-yl}-nicotinic acid ethyl ester]
CCOC(=O)c1cnc(N2CCN(c3cc(-c4cccc(C)c4)nc(N4CCCC4C)n3)CC2)c(C)c1 (stereo not drawn) [Example 55, 5-Methyl-6-{4-[2-(2-methyl-pyrrolidin-1-yl)-6-m-tolyl-pyrimidin-4-yl]-piperazin-1-yl}-nicotinic acid ethyl ester]
CCOC(=O)c1cnc(N2CCN(c3cc(-c4ccncc4)nc(N4CCCC4C)n3)CC2)c(C)c1 (stereo not drawn) [Example 56, 5-Methyl-6-{4-[2-(2-methyl-pyrrolidin-1-yl)-6-pyridin-4-yl-pyrimidin-4-yl]-piperazin-1-yl}-nicotinic acid ethyl ester]
CCOC(=O)c1cnc(N2CCN(c3cc(-c4ccnc(C(C)C)c4)nc(N4CCCC4C)n3)CC2)c(C)c1 (stereo not drawn) [Example 57, 6-{4-[6-(2-Isopropyl-pyridin-4-yl)-2-(2-methyl-pyrrolidin-1-yl)-pyrimidin-4-yl]-piperazin-1-yl}-5-methyl - nicotinic acid ethyl ester]
CCOC(=O)c1cnc(N2CCN(c3cc(-c4ccccc4)nc(N4CCCC4C)n3)[C@H](C)C2)c(C)c1 (stereo partly drawn) [Example 58, 5-Methyl-6-{3-(R)-methyl-4-[2-(2-methyl-pyrrolidin-1-yl)-6-phenyl-pyrimidin-4-yl]-piperazin-1-yl}-nicotinic acid ethyl ester]
CCOC(=O)c1cnc(N2CCN(c3cc(-c4cccc(C)c4)nc(N4CCCC4C)n3)[C@H](C)C2)c(C)c1 (stereo partly drawn) [Example 59, 5-Methyl-6-{3-(R)-methyl-4-[2-(2-methyl-pyrrolidin-1-yl)-6-m-tolyl-pyrimidin-4-yl]-piperazin-1-yl}-nicotinic acid ethyl ester]
